# Source: US20230067378A1, “COMPOSITIONS AND METHODS FOR THE TREATMENT OF ESTROGEN-DEPENDENT DISORDERS” (ObsEva S.A., priority 2018, published 2023)
# Test system: pre-menopausal women
# Assay: uterine bleeding pattern, clinical trial of compound (VI) 200 mg per day (choline salt) with add-back therapy (1.0 mg E2, 0.5 mg norethindrone acetate)
# Type: in vivo, human
# Experimental: The experiments described in this example were conducted as part of a single-center, open-label, randomized, parallel-group clinical trial in 32 pre-menopausal women. Following screening assessments, and during the second half of the menstrual cycle, women received norethindrone (5 mg, three-times daily for 10 days) to synchronize menstrual cycles. After menstrual cycle synchronization, subjects were randomized with a 1:1 ratio to one of two treatment arms: (i) a cohort receiving once-daily administration of compound (VI) (200 mg per day, administered in the form of a choline salt) with concurrent onset of add-back therapy administration for 10 weeks (“Concurrent-ABT”), or (ii) a cohort receiving pre-treatment with compound (VI) (200 mg per day, administered in the form of a choline salt) for 4 weeks followed by combined daily administration of compound (VI) and add-back therapy (“Delayed-ABT”). The add-back therapy used in these experiments contained 1.0 mg of E2 and 0.5 mg of norethindrone acetate, and was administered to subjects once daily.
# The main treatment outcomes and endpoints measured during these experiments included (i) a qualitative assessment of uterine blood loss, which was recorded on a daily basis throughout the study by characterizing each subject's bleeding pattern using one of the following four categories: “no bleeding,” “spotting” (light staining, dark blood, no sanitary protection needed or only panty liner), “bleeding” (1-4 completely soiled maxi sanitary towels or 1-8 soiled tampons or equivalent combination of the two), or “heavy bleeding” (>4 completely soiled maxi sanitary towels or >8 soiled tampons or equivalent combination of the two); (ii) a bi-weekly assessment of each subject's circulating E2 concentration; (iii) a bi-weekly assessment of each subject's circulating progesterone concentration (measured using a validated commercial chemiluminescence immunoassay method (Elecsys Progesterone III, Roche, Burgess Hill, UK)); (iv) the pharmacokinetic profile of compound (VI) and the add-back therapy; and (v) adverse events.
# [1] = Concurrent-ABT group, first half of treatment
# [2] = Concurrent-ABT group, second half of the treatment period
# [3] = Days 1-14, treatment A (Concurrent-ABT), N=16
# [4] = Days 1-14, treatment B (Delayed-ABT), N=16
# [5] = Days 15-28, Overall (A+B), N=32
# [6] = Days 15-28, treatment A (Concurrent-ABT), N=16
# [7] = Days 15-28, treatment B (Delayed-ABT), N=16
# [8] = Days 29-42, Overall (A+B), N=29
# [9] = Days 29-42, treatment A (Concurrent-ABT), N=14
smiles,measurement,setting,value
"COc1cc(F)c(-n2c(=O)[nH]c3csc(C(=O)O)c3c2=O)cc1OCc1c(OC)ccc(F)c1F [Compound (VI), 3-[2-fluoro-5-(2,3-difluoro-6-methoxybenzyloxy)4-methoxyphenyl]-2,4-dioxo-1,2,3,4-tetrahydrothieno [3,4d]pyrimidine-5-carboxylic acid]",women who had reached amenorrhea within 5 days of treatment,Concurrent-ABT group,~40%
same,"bleeding, frequency",[1],≤ 4%
same,"spotting, frequency",[1],≤ 10%
same,women in complete amenorrhea (no bleeding),"Concurrent-ABT group, last 4 weeks of treatment",~80%
same,"amenorrhea, frequency",[2],up to 98%
same,"bleeding, frequency",[2],less than 3%
same,"spotting, frequency",[2],1-5%
same,Uterine Bleeding Pattern,"Concurrent-ABT, Weeks 2-4",Spotting and bleeding generally decreased over time
same,Uterine Bleeding Pattern: Bleeding,"Concurrent-ABT, Weeks 2-4",Bleeding: ≤4%
same,Uterine Bleeding Pattern: Spotting,"Concurrent-ABT, Weeks 2-4",Spotting: ≤8%
same,Uterine Bleeding Pattern: Bleeding,"Concurrent-ABT, Weeks 7-10",Bleeding: ≤2%
same,Uterine Bleeding Pattern: Spotting,"Concurrent-ABT, Weeks 7-10",Spotting: 1-5%
same,Uterine Bleeding Pattern: amenorrhea,"Concurrent-ABT, Weeks 7-10",Amenorrhea: Up to 98%
same,"No Bleeding or Spotting, subjects (%), Plasma Estradiol Level 20-50 pg/mL","Days 1-14, Overall (A+B), N=32",(9.4%)
same,"No Bleeding or Spotting, subjects (%), Plasma Estradiol Level <20 pg/mL","Days 1-14, Overall (A+B), N=32",(15.6%)
same,"No Bleeding or Spotting, subjects (%), Plasma Estradiol Level >50 pg/mL","Days 1-14, Overall (A+B), N=32",(3.1%)
same,"No Bleeding or Spotting, subjects (n), Plasma Estradiol Level 20-50 pg/mL","Days 1-14, Overall (A+B), N=32",3
same,"No Bleeding or Spotting, subjects (n), Plasma Estradiol Level <20 pg/mL","Days 1-14, Overall (A+B), N=32",5
same,"No Bleeding or Spotting, subjects (n), Plasma Estradiol Level >50 pg/mL","Days 1-14, Overall (A+B), N=32",1
same,"No Bleeding, subjects (%), Plasma Estradiol Level 20-50 pg/mL","Days 1-14, Overall (A+B), N=32",(0.0%)
same,"No Bleeding, subjects (%), Plasma Estradiol Level <20 pg/mL","Days 1-14, Overall (A+B), N=32",(3.1%)
same,"No Bleeding, subjects (%), Plasma Estradiol Level >50 pg/mL","Days 1-14, Overall (A+B), N=32",(3.1%)
same,"No Bleeding, subjects (n), Plasma Estradiol Level 20-50 pg/mL","Days 1-14, Overall (A+B), N=32",0
same,"No Bleeding, subjects (n), Plasma Estradiol Level <20 pg/mL","Days 1-14, Overall (A+B), N=32",1
same,"No Bleeding, subjects (n), Plasma Estradiol Level >50 pg/mL","Days 1-14, Overall (A+B), N=32",1
same,"No Bleeding or Spotting, subjects (%), Plasma Estradiol Level 20-50 pg/mL",[3],(18.8%)
same,"No Bleeding or Spotting, subjects (%), Plasma Estradiol Level <20 pg/mL",[3],(0.0%)
same,"No Bleeding or Spotting, subjects (%), Plasma Estradiol Level >50 pg/mL",[3],(6.3%)
same,"No Bleeding or Spotting, subjects (n), Plasma Estradiol Level 20-50 pg/mL",[3],3
same,"No Bleeding or Spotting, subjects (n), Plasma Estradiol Level <20 pg/mL",[3],0
same,"No Bleeding or Spotting, subjects (n), Plasma Estradiol Level >50 pg/mL",[3],1
same,"No Bleeding, subjects (%), Plasma Estradiol Level 20-50 pg/mL",[3],(0.0%)
same,"No Bleeding, subjects (%), Plasma Estradiol Level <20 pg/mL",[3],(0.0%)
same,"No Bleeding, subjects (%), Plasma Estradiol Level >50 pg/mL",[3],(6.3%)
same,"No Bleeding, subjects (n), Plasma Estradiol Level 20-50 pg/mL",[3],0
same,"No Bleeding, subjects (n), Plasma Estradiol Level <20 pg/mL",[3],0
same,"No Bleeding, subjects (n), Plasma Estradiol Level >50 pg/mL",[3],1
same,"No Bleeding or Spotting, subjects (%), Plasma Estradiol Level 20-50 pg/mL",[4],(0.0%)
same,"No Bleeding or Spotting, subjects (%), Plasma Estradiol Level <20 pg/mL",[4],(31.3%)
same,"No Bleeding or Spotting, subjects (%), Plasma Estradiol Level >50 pg/mL",[4],(0.0%)
same,"No Bleeding or Spotting, subjects (n), Plasma Estradiol Level 20-50 pg/mL",[4],0
same,"No Bleeding or Spotting, subjects (n), Plasma Estradiol Level <20 pg/mL",[4],5
same,"No Bleeding or Spotting, subjects (n), Plasma Estradiol Level >50 pg/mL",[4],0
same,"No Bleeding, subjects (%), Plasma Estradiol Level 20-50 pg/mL",[4],(0.0%)
same,"No Bleeding, subjects (%), Plasma Estradiol Level <20 pg/mL",[4],(6.3%)
same,"No Bleeding, subjects (%), Plasma Estradiol Level >50 pg/mL",[4],(0.0%)
same,"No Bleeding, subjects (n), Plasma Estradiol Level 20-50 pg/mL",[4],0
same,"No Bleeding, subjects (n), Plasma Estradiol Level <20 pg/mL",[4],1
same,"No Bleeding, subjects (n), Plasma Estradiol Level >50 pg/mL",[4],0
same,"No Bleeding or Spotting, subjects (%), Plasma Estradiol Level 20-50 pg/mL",[5],(34.4%)
same,"No Bleeding or Spotting, subjects (%), Plasma Estradiol Level <20 pg/mL",[5],(53.1%)
same,"No Bleeding or Spotting, subjects (%), Plasma Estradiol Level >50 pg/mL",[5],(3.1%)
same,"No Bleeding or Spotting, subjects (n), Plasma Estradiol Level 20-50 pg/mL",[5],11
same,"No Bleeding or Spotting, subjects (n), Plasma Estradiol Level <20 pg/mL",[5],17
same,"No Bleeding or Spotting, subjects (n), Plasma Estradiol Level >50 pg/mL",[5],1
same,"No Bleeding, subjects (%), Plasma Estradiol Level 20-50 pg/mL",[5],(21.9%)
same,"No Bleeding, subjects (%), Plasma Estradiol Level <20 pg/mL",[5],(50.0%)
same,"No Bleeding, subjects (%), Plasma Estradiol Level >50 pg/mL",[5],(3.1%)
same,"No Bleeding, subjects (n), Plasma Estradiol Level 20-50 pg/mL",[5],7
same,"No Bleeding, subjects (n), Plasma Estradiol Level <20 pg/mL",[5],16
same,"No Bleeding, subjects (n), Plasma Estradiol Level >50 pg/mL",[5],1
same,"No Bleeding or Spotting, subjects (%), Plasma Estradiol Level 20-50 pg/mL",[6],(62.5%)
same,"No Bleeding or Spotting, subjects (%), Plasma Estradiol Level <20 pg/mL",[6],(12.5%)
same,"No Bleeding or Spotting, subjects (%), Plasma Estradiol Level >50 pg/mL",[6],(6.3%)
same,"No Bleeding or Spotting, subjects (n), Plasma Estradiol Level 20-50 pg/mL",[6],10
same,"No Bleeding or Spotting, subjects (n), Plasma Estradiol Level <20 pg/mL",[6],2
same,"No Bleeding or Spotting, subjects (n), Plasma Estradiol Level >50 pg/mL",[6],1
same,"No Bleeding, subjects (%), Plasma Estradiol Level 20-50 pg/mL",[6],(37.5%)
same,"No Bleeding, subjects (%), Plasma Estradiol Level <20 pg/mL",[6],(12.5%)
same,"No Bleeding, subjects (%), Plasma Estradiol Level >50 pg/mL",[6],(6.3%)
same,"No Bleeding, subjects (n), Plasma Estradiol Level 20-50 pg/mL",[6],6
same,"No Bleeding, subjects (n), Plasma Estradiol Level <20 pg/mL",[6],2
same,"No Bleeding, subjects (n), Plasma Estradiol Level >50 pg/mL",[6],1
same,"No Bleeding or Spotting, subjects (%), Plasma Estradiol Level 20-50 pg/mL",[7],(6.3%)
same,"No Bleeding or Spotting, subjects (%), Plasma Estradiol Level <20 pg/mL",[7],(93.8%)
same,"No Bleeding or Spotting, subjects (%), Plasma Estradiol Level >50 pg/mL",[7],(0.0%)
same,"No Bleeding or Spotting, subjects (n), Plasma Estradiol Level 20-50 pg/mL",[7],1
same,"No Bleeding or Spotting, subjects (n), Plasma Estradiol Level <20 pg/mL",[7],15
same,"No Bleeding or Spotting, subjects (n), Plasma Estradiol Level >50 pg/mL",[7],0
same,"No Bleeding, subjects (%), Plasma Estradiol Level 20-50 pg/mL",[7],(6.3%)
same,"No Bleeding, subjects (%), Plasma Estradiol Level <20 pg/mL",[7],(87.5%)
same,"No Bleeding, subjects (%), Plasma Estradiol Level >50 pg/mL",[7],(0.0%)
same,"No Bleeding, subjects (n), Plasma Estradiol Level 20-50 pg/mL",[7],1
same,"No Bleeding, subjects (n), Plasma Estradiol Level <20 pg/mL",[7],14
same,"No Bleeding, subjects (n), Plasma Estradiol Level >50 pg/mL",[7],0
same,"No Bleeding or Spotting, subjects (%), Plasma Estradiol Level 20-50 pg/mL",[8],(55.2%)
same,"No Bleeding or Spotting, subjects (%), Plasma Estradiol Level <20 pg/mL",[8],(13.8%)
same,"No Bleeding or Spotting, subjects (%), Plasma Estradiol Level >50 pg/mL",[8],(20.7%)
same,"No Bleeding or Spotting, subjects (n), Plasma Estradiol Level 20-50 pg/mL",[8],16
same,"No Bleeding or Spotting, subjects (n), Plasma Estradiol Level <20 pg/mL",[8],4
same,"No Bleeding or Spotting, subjects (n), Plasma Estradiol Level >50 pg/mL",[8],6
same,"No Bleeding, subjects (%), Plasma Estradiol Level 20-50 pg/mL",[8],(41.4%)
same,"No Bleeding, subjects (%), Plasma Estradiol Level <20 pg/mL",[8],(13.8%)
same,"No Bleeding, subjects (%), Plasma Estradiol Level >50 pg/mL",[8],(17.2%)
same,"No Bleeding, subjects (n), Plasma Estradiol Level 20-50 pg/mL",[8],12
same,"No Bleeding, subjects (n), Plasma Estradiol Level <20 pg/mL",[8],4
same,"No Bleeding, subjects (n), Plasma Estradiol Level >50 pg/mL",[8],5
same,"No Bleeding or Spotting, subjects (%), Plasma Estradiol Level 20-50 pg/mL",[9],(64.3%)
same,"No Bleeding or Spotting, subjects (%), Plasma Estradiol Level <20 pg/mL",[9],(7.1%)
same,"No Bleeding or Spotting, subjects (%), Plasma Estradiol Level >50 pg/mL",[9],(21.4%)
